Assay results as given in ChEMBL document CHEMBL1150922, “A new photosystem II electron transfer inhibitor from Sorghum bicolor” (J Nat Prod, 1998).
The source made the active and inactive calls. No cut-off for these calls is given here.

How the values were obtained:
[1] = system: Lactuca sativa; test: Phytotoxicity against lettuce seedlings assessed as inhibition of seed germination at >0.3 mM after 4 days; assay type: functional, organism-based
[2] = Inhibition of photosystem 2 in spinach thylakoid membranes assessed as oxygen evolution; assay type: cell membranes, Spinacia oleracea; details: read-out: I50
[3] = system: Spinacia oleracea; test: Reduction in light-induced chlorophyll fluorescence half-life in spinach thylakoids membrane at 0.3 to 1 uM; assay type: functional, cell membranes
[4] = system: Lactuca sativa; test: Phytotoxicity against lettuce seedlings assessed as inhibition of seed germination at 0.1 mM after 4 days; assay type: functional, organism-based

Q: Which Activity [1] does the source give for `C=CC/C=C\C/C=C\CCCCCCCC1=C(OC)C(=O)C=C(OC)C1=O` here?
A: Its Activity is “Active”.

Q: What about the IC50 [2] of the same compound?
A: Its IC50 is 280 nM.

Q: What about the Activity [3] of the same compound?
A: The Activity was “Active”.

Q: What about the Activity [4] of the same compound?
A: Its Activity is “inactive”.

Q: Which results are given for `C=CC/C=C\C/C=C\CCCCCCCC1=C(O)C(=O)C=C(OCC)C1=O`?
A: Activity [1]: Active; IC50 [2]: 1070 nM; Activity [3]: Active; Activity [4]: inactive

Q: Which results are given for `CCNc1nc(Cl)nc(NC(C)C)n1` [ATRAZINE]?
A: Activity [1]: Active; IC50 [2]: 930 nM; Activity [3]: Active; Activity [4]: inactive

Q: For `C=CC/C=C\C/C=C\CCCCCCCC1=C(O)C(=O)C=C(OC)C1=O` [SORGOLEONE], which Activity [1] is on record?
A: The Activity was “Active”.

Q: And the IC50 [2]?
A: Its IC50 is 100 nM.

Q: What about the Activity [3] of the same compound?
A: The Activity was “Active”.

Q: And the Activity [4]?
A: Its Activity is “inactive”.
